Reference: PubChem BioAssay AID248 (DTP/NCI, 2004)
Inconclusive results and toxic doses are left out. No stated cut-off is given here; in the data, active means T/C of 150% or more; inactive means T/C below 125%.

System: L1210 leukemia ip in BDF1 mice, survival T/C
Test: NCI In Vivo Anticancer Drug Screen. Data for tumor model L1210 Leukemia (intraperitoneal) in B6D2F1 (BDF1) mice
Settings: endpoint: mean survival time, higher = longer survival
Method in brief: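 Mice bearing the transplanted tumor received compound or vehicle. Survival of the treated group was divided by that of the vehicle-treated control group to give the ratio.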

[1] = dose: 100.0 mg/kg/injection, schedule: Q04DX003 (ip), vehicle: saline with Tween-80
[2] = dose: 200.0 mg/kg/injection, schedule: Q04DX003 (ip), vehicle: saline with Tween-80
[3] = dose: 400.0 mg/kg/injection, schedule: Q04DX003 (ip), vehicle: saline with Tween-80
[4] = dose: 100.0 mg/kg/injection, schedule: Q01DX001 (ip), vehicle: carboxymethylcellulose (CMC)
[5] = dose: 200.0 mg/kg/injection, schedule: Q01DX001 (ip), vehicle: carboxymethylcellulose (CMC)
[6] = dose: 400.0 mg/kg/injection, schedule: Q01DX001 (ip), vehicle: carboxymethylcellulose (CMC)
[7] = dose: 100.0 mg/kg/injection, schedule: Q01DX001 (ip), vehicle: saline
[8] = dose: 200.0 mg/kg/injection, schedule: Q01DX001 (ip), vehicle: saline
[9] = dose: 100.0 mg/kg/injection, schedule: Q01DX009 (ip), vehicle: saline
[10] = dose: 200.0 mg/kg/injection, schedule: Q01DX009 (ip), vehicle: saline
[11] = dose: 400.0 mg/kg/injection, schedule: Q01DX009 (ip), vehicle: saline

Measured: T/C

N#CCCc1ccc(O)cc1
inactive: dose: 50.0 mg/kg/injection, schedule: Q01DX009 (ip), vehicle: gum acacia 100 % of control | dose: 100.0 mg/kg/injection, schedule: Q01DX009 (ip), vehicle: gum acacia 107 % of control | dose: 100.0 mg/kg/injection, schedule: Q04DX003 (ip), vehicle: gum acacia 97 % of control | dose: 200.0 mg/kg/injection, schedule: Q01DX009 (ip), vehicle: gum acacia 93 % of control | dose: 200.0 mg/kg/injection, schedule: Q04DX003 (ip), vehicle: gum acacia 97 % of control

CC(C)=CCC/C(C)=C/Cn1cc([N+](=O)[O-])ccc1=O
inactive: dose: 100.0 mg/kg/injection, schedule: Q01DX001 (ip), vehicle: saline with Tween-80 106 % of control | [1] 111 % of control | dose: 200.0 mg/kg/injection, schedule: Q01DX001 (ip), vehicle: saline with Tween-80 101 % of control | [2] 111 % of control | dose: 400.0 mg/kg/injection, schedule: Q01DX001 (ip), vehicle: saline with Tween-80 98 % of control | [3] 102 % of control

Cc1ccc(Nc2cc(=S)nc(N)[nH]2)cc1C
inactive: dose: 100.0 mg/kg/injection, schedule: Q01DX Z (ip), vehicle: methylcellulose (MC) 103 % of control | dose: 200.0 mg/kg/injection, schedule: Q01DX Z (ip), vehicle: methylcellulose (MC) 95 % of control

CC(=O)OCC(=O)C12OC1CC1C3CCC4CC(=O)CCC4(C)C3CC(=O)C12C (stereo not given)
inactive: dose: 100.0 mg/kg/injection, schedule: Q01DX001 (ip), vehicle: other 89 % of control | dose: 200.0 mg/kg/injection, schedule: Q01DX001 (ip), vehicle: other 90 % of control | dose: 400.0 mg/kg/injection, schedule: Q01DX001 (ip), vehicle: other 97 % of control

O=C1C2(c3ccccc3)CC(CBr)C1(c1ccccc1)C(c1ccccc1)=C2c1ccccc1 (stereo not given)
inactive: dose: 50.0 mg/kg/injection, schedule: Q01DX001 (ip), vehicle: carboxymethylcellulose (CMC) 97 % of control | [4] 100 % of control | [5] 97 % of control | [6] 97 % of control

CNNP1(=O)OCC(C)([N+](=O)[O-])CO1 (stereo not given)
inactive: [7] 101 % of control | [8] 101 % of control

O=C(NCCCCCCNC(=O)Nc1cccc2ccccc12)Nc1cccc2ccccc12
inactive: dose: 100.0 mg/kg/injection, schedule: Q01DX009 (ip), vehicle: Klucel (hydroxypropylcellulose) (HPC) 97 % of control | dose: 200.0 mg/kg/injection, schedule: Q01DX009 (ip), vehicle: Klucel (hydroxypropylcellulose) (HPC) 103 % of control | dose: 400.0 mg/kg/injection, schedule: Q01DX009 (ip), vehicle: Klucel (hydroxypropylcellulose) (HPC) 92 % of control

COC(=O)c1cc(C)cc(N2c3ccccc3-c3cc(C)ccc3S2(=O)=O)c1C
inactive: [4] 104 % of control | [5] 102 % of control | [6] 96 % of control

O=[N+]([O-])c1cc(Cl)ccc1S(=O)(=O)/C=C/c1ccccc1
inactive: [7] 104 % of control | [9] 94 % of control | [8] 104 % of control | [10] 96 % of control | dose: 400.0 mg/kg/injection, schedule: Q01DX001 (ip), vehicle: saline 100 % of control | [11] 91 % of control

O=C(O)c1ccccc1C(=O)NC(Cc1cnc[nH]1)C(=O)O (stereo not given)
inactive: dose: 100.0 mg/kg/injection, schedule: Q01DX009 (ip), vehicle: saline with Tween-80 96 % of control | [1] 102 % of control | dose: 200.0 mg/kg/injection, schedule: Q01DX009 (ip), vehicle: saline with Tween-80 100 % of control | [2] 102 % of control | dose: 400.0 mg/kg/injection, schedule: Q01DX009 (ip), vehicle: saline with Tween-80 94 % of control | [3] 91 % of control

O=C(O)C12CCC(CC1)C2
inactive: dose: 50.0 mg/kg/injection, schedule: Q01DX009 (ip), vehicle: saline 106 % of control | [9] 110 % of control | [10] 112 % of control | [11] 96 % of control

CCCC[P+](CCCC)(CCCC)Cc1ccccc1
inactive: dose: 5.0 mg/kg/injection, schedule: Q01DX001 (ip), vehicle: saline 100 % of control | dose: 10.0 mg/kg/injection, schedule: Q01DX001 (ip), vehicle: saline 119 % of control | dose: 12.5 mg/kg/injection, schedule: Q04DX003 (ip), vehicle: Klucel (hydroxypropylcellulose) (HPC) 104 % of control | dose: 20.0 mg/kg/injection, schedule: Q01DX001 (ip), vehicle: saline 98 % of control | dose: 25.0 mg/kg/injection, schedule: Q04DX003 (ip), vehicle: Klucel (hydroxypropylcellulose) (HPC) 104 % of control | dose: 40.0 mg/kg/injection, schedule: Q01DX001 (ip), vehicle: saline 96 % of control
